Laboratory results: the supplement of paper PMC9663587

Legend:
THZ531 = compound: CN(C)C/C=C/C(=O)Nc1ccc(C(=O)N2CCC[C@@H](Nc3ncc(Cl)c(-c4c[nH]c5ccccc45)n3)C2)cc1 [THZ531]; experiment: GR value, 72 h; higher = faster growth (1 = untreated, <0 = killing);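 also: breast cancer and non-malignant breast epithelial lines, nine half-log doses, viable cells counted by Hoechst and LIVE/DEAD dye imaging versus time-zero plates and DMSO controls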
THZ1 = compound: CN(C)C/C=C/C(=O)Nc1ccc(C(=O)Nc2cccc(Nc3ncc(Cl)c(-c4c[nH]c5ccccc45)n3)c2)cc1 [THZ1]; experiment: as above
Flavopiridol [1] = compound: T1, CN1CC[C@H](c2c(O)cc(O)c3c(=O)cc(-c4ccccc4Cl)oc23)[C@H](O)C1 [Flavopiridol]; experiment: as above
[2] = compound: CCN1CCN(Cc2ccc(Nc3ncc(F)c(-c4cc(F)c5nc(C)n(C(C)C)c5c4)n3)nc2)CC1; experiment: as above
BSJ-03-123 = compound: CC(=O)c1c(C)c2cnc(Nc3ccc(N4CCN(CCOCCOCCOCCNC(=O)COc5cccc6c5C(=O)N(C5CCC(=O)NC5=O)C6=O)CC4)cn3)nc2n(C2CCCC2)c1=O [BSJ-03-123]; experiment: as above
YKL-5-124 = compound: C=CC(=O)Nc1ccc(C(=O)Nc2[nH]nc3c2CN(C(=O)N[C@H](CN(C)C)c2ccccc2)C3(C)C)cc1 [YKL-5-124]; experiment: as above
[3] = compound: CCc1cnn2c(NCc3ccc[n+]([O-])c3)cc(N3CCCC[C@H]3CCO)nc12; experiment: as above
LEE011/Ribociclib = compound: CN(C)C(=O)c1cc2cnc(Nc3ccc(N4CCNCC4)cn3)nc2n1C1CCCC1 [LEE011/Ribociclib]; experiment: as above
Neratinib/HKI272 = compound: CCOc1cc2ncc(C#N)c(Nc3ccc(OCc4ccccn4)c(Cl)c3)c2cc1NC(=O)/C=C/CN(C)C [Neratinib/HKI272]; experiment: as above
[4] = compound: CC(=O)c1c(C)c2cnc(Nc3ccc(N4CCNCC4)cn3)nc2n(C2CCCC2)c1=O; experiment: as above
Flavopiridol [5] = compound: T1, Flavopiridol; experiment: increase in dead-cell fraction, 72 h; higher = more death;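 also: breast cancer cell lines in 384-well plates, stained with Hoechst plus LIVE/DEAD far red dye and imaged, cells above an LDR intensity threshold counted dead, Hoechst-negative corpses included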
[6] = compound: CCN1CCN(Cc2ccc(Nc3ncc(F)c(-c4cc(F)c5nc(C)n(C(C)C)c5c4)n3)nc2)CC1; experiment: as above

BT474
GR value (THZ531; 0.0001 µM): 1.09 GR | GR value (THZ531; 0.0003162 µM): 0.953 GR | GR value (THZ531; 0.001 µM): 0.521 GR | GR value (THZ531; 0.003162 µM): 0.917 GR | GR value (THZ531; 0.01 µM): 1.1 GR | GR value (THZ531; 0.03162 µM): 0.881 GR | GR value (THZ531; 0.1 µM): -0.388 GR | GR value (THZ531; 0.3162 µM): -0.861 GR | GR value (THZ531; 1 µM): -0.675 GR | GR value (THZ1; 0.0001 µM): 1 GR | GR value (THZ1; 0.0003162 µM): 0.971 GR | GR value (THZ1; 0.001 µM): 0.687 GR | GR value (THZ1; 0.003162 µM): 0.659 GR | GR value (THZ1; 0.01 µM): 0.571 GR | GR value (THZ1; 0.03162 µM): 0.441 GR | GR value (THZ1; 0.1 µM): -0.627 GR | GR value (THZ1; 0.3162 µM): -0.683 GR | GR value (THZ1; 1 µM): -0.617 GR | GR value (Flavopiridol [1]; 0.0001 µM): 1.17 GR | GR value (Flavopiridol [1]; 0.0003162 µM): 0.998 GR | GR value (Flavopiridol [1]; 0.001 µM): 0.895 GR | GR value (Flavopiridol [1]; 0.003162 µM): 0.878 GR | GR value (Flavopiridol [1]; 0.01 µM): 0.801 GR | GR value (Flavopiridol [1]; 0.03162 µM): 0.959 GR | GR value (Flavopiridol [1]; 0.1 µM): 0.935 GR | GR value (Flavopiridol [1]; 0.3162 µM): 0.154 GR | GR value (Flavopiridol [1]; 1 µM): -0.753 GR | GR value ([2]; 0.001 µM): 1.01 GR | GR value ([2]; 0.003162 µM): 0.837 GR | GR value ([2]; 0.01 µM): 0.806 GR | GR value ([2]; 0.03162 µM): 0.594 GR | GR value ([2]; 0.1 µM): 0.62 GR | GR value ([2]; 0.3162 µM): 0.536 GR | GR value ([2]; 1 µM): 0.577 GR | GR value ([2]; 3.162 µM): 0.696 GR | GR value ([2]; 10 µM): 0.274 GR | GR value (BSJ-03-123; 0.001 µM): 1.01 GR | GR value (BSJ-03-123; 0.003162 µM): 0.599 GR | GR value (BSJ-03-123; 0.01 µM): 0.685 GR | GR value (BSJ-03-123; 0.03162 µM): 0.727 GR | GR value (BSJ-03-123; 0.1 µM): 0.515 GR | GR value (BSJ-03-123; 0.3162 µM): 0.523 GR | GR value (BSJ-03-123; 1 µM): 0.364 GR | GR value (BSJ-03-123; 3.162 µM): 0.386 GR | GR value (BSJ-03-123; 10 µM): 0.0116 GR | GR value (YKL-5-124; 0.001 µM): 0.506 GR | GR value (YKL-5-124; 0.003162 µM): 0.225 GR | GR value (YKL-5-124; 0.01 µM): 0.197 GR | GR value (YKL-5-124; 0.03162 µM): 0.179 GR | GR value (YKL-5-124; 0.1 µM): -0.0193 GR | GR value (YKL-5-124; 0.3162 µM): -0.106 GR | GR value (YKL-5-124; 1 µM): -0.16 GR | GR value (YKL-5-124; 3.162 µM): -0.0451 GR | GR value (YKL-5-124; 10 µM): -0.519 GR | GR value ([3]; 0.0001 µM): 1.02 GR | GR value ([3]; 0.0003162 µM): 0.963 GR | GR value ([3]; 0.001 µM): 1.17 GR | GR value ([3]; 0.003162 µM): 1.12 GR | GR value ([3]; 0.01 µM): 0.918 GR | GR value ([3]; 0.03162 µM): -0.569 GR | GR value ([3]; 0.1 µM): -0.753 GR | GR value ([3]; 0.3162 µM): -0.769 GR | GR value ([3]; 1 µM): -0.75 GR | GR value (LEE011/Ribociclib; 0.001 µM): 0.773 GR | GR value (LEE011/Ribociclib; 0.003162 µM): 0.676 GR | GR value (LEE011/Ribociclib; 0.01 µM): 0.849 GR | GR value (LEE011/Ribociclib; 0.03162 µM): 0.637 GR | GR value (LEE011/Ribociclib; 0.1 µM): 0.674 GR | GR value (LEE011/Ribociclib; 0.3162 µM): 0.447 GR | GR value (LEE011/Ribociclib; 1 µM): 0.532 GR | GR value (LEE011/Ribociclib; 3.162 µM): 0.6 GR | GR value (LEE011/Ribociclib; 10 µM): 0.711 GR | GR value (Neratinib/HKI272; 0.0003162 µM): 0.989 GR | GR value (Neratinib/HKI272; 0.001 µM): 0.784 GR | GR value (Neratinib/HKI272; 0.003162 µM): -0.125 GR | GR value (Neratinib/HKI272; 0.01 µM): -0.734 GR | GR value (Neratinib/HKI272; 0.03162 µM): -0.825 GR | GR value (Neratinib/HKI272; 0.1 µM): -0.86 GR | GR value (Neratinib/HKI272; 0.3162 µM): -0.874 GR | GR value (Neratinib/HKI272; 1 µM): -0.895 GR | GR value (Neratinib/HKI272; 3.162 µM): -0.922 GR | GR value ([4]; 0.0003162 µM): 1.12 GR | GR value ([4]; 0.001 µM): 1.05 GR | GR value ([4]; 0.003162 µM): 1.11 GR | GR value ([4]; 0.01 µM): 0.918 GR | GR value ([4]; 0.03162 µM): 0.735 GR | GR value ([4]; 0.1 µM): 0.668 GR | GR value ([4]; 0.3162 µM): 0.619 GR | GR value ([4]; 1 µM): 0.611 GR | GR value ([4]; 3.162 µM): 0.544 GR | increase in dead-cell fraction (Flavopiridol [5]; 0.0001 µM): 0.0042 | increase in dead-cell fraction (Flavopiridol [5]; 0.0003162 µM): 0.0024 | increase in dead-cell fraction (Flavopiridol [5]; 0.001 µM): -0.0008 | increase in dead-cell fraction (Flavopiridol [5]; 0.003162 µM): 0.0046 | increase in dead-cell fraction (Flavopiridol [5]; 0.01 µM): -0.0017 | increase in dead-cell fraction (Flavopiridol [5]; 0.03162 µM): 0.003 | increase in dead-cell fraction (Flavopiridol [5]; 0.1 µM): 0.0067 | increase in dead-cell fraction (Flavopiridol [5]; 0.3162 µM): 0.0397 | increase in dead-cell fraction (Flavopiridol [5]; 1 µM): 0.274 | increase in dead-cell fraction ([6]; 0.001 µM): -0.005 | increase in dead-cell fraction ([6]; 0.003162 µM): -0.0017 | increase in dead-cell fraction ([6]; 0.01 µM): 0.0057 | increase in dead-cell fraction ([6]; 0.03162 µM): 0.0071 | increase in dead-cell fraction ([6]; 0.1 µM): 0.0213 | increase in dead-cell fraction ([6]; 0.3162 µM): 0.01 | increase in dead-cell fraction ([6]; 1 µM): 0.0104 | increase in dead-cell fraction ([6]; 3.162 µM): 0.0016 | increase in dead-cell fraction ([6]; 10 µM): 0.0194
